Data set [1] addresses T1, Pgk1 (Homo sapiens, UniProt P00558).
T1 sequence (P00558 1-417): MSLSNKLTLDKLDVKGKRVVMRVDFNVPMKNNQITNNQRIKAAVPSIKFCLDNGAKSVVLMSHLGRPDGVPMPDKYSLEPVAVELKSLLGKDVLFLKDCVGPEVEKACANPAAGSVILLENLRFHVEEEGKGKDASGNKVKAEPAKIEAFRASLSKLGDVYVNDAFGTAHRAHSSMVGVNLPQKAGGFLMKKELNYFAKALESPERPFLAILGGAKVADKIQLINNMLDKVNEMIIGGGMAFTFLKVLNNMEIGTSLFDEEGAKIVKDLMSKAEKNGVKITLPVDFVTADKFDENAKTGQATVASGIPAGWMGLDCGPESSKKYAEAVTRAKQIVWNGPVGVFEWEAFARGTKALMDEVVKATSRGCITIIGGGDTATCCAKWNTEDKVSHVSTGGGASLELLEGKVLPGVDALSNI
Briefly: Affinity for Pgk1 protein (Biacore T200 chip). Format: binding. As to conditions: for Rmax: amount of drug bound to the target protein when the affinity was detected. The method, then: Purified Pgk1 protein (with a concentration of 1 mg/mL) was immobilized on a Biacore T200 chip. […] The obtained curves can calculate parameters such as affinity and Rmax.
In general terms: SPR reads the build-up and loss of mass on a sensor chip optically.

In another data set the test system is SK-N-SH cells. Kind of data set: Cellular ATP levels (Promega ATP assay kit). It is filed as cell-based, human. The conditions noted are these: for activity in increasing cellular ATP: SK-N-SH cells, 10 µM, 5% O2, untreated control defined as 1 (FIG. 1); for activity in increasing cellular ATP / optimal dose (cellular ATP levels): 48 hours; for cell growth: 50 µM; for optimal dose (cellular ATP levels): doses of 5 µM, 10 µM and 50 µM. The method, then: Human Neuroblastoma Cell Line (SK-N-SH) is a human-derived neuroblastoma cell line. SK-N-SH cells were seeded in a 6-well plate at a density of 6×10^4 cells per well. The cells were cultured for 12 hours under 5% O2. Various drugs at a concentration of 10 µM were added. After 48 hours, the cells were harvested. Celluar ATP levels were measured using the Promega ATP assay kit. The experiment was repeated 6 times to 10 times. The experimental results were illustrated in FIG. 1. […] T1 to T11 were the experimental groups.
SK-N-SH cells were seeded in a 6-well plate at a density of 6×10^4 per well. Cells were cultured for 12 hours under 5% O2, and the drug was added. Cells were harvested after 48 hours. Cellular ATP levels were measured using a Promega ATP assay kit. The experiment was repeated 5 times to 7 times.

Another data set deals with Wild-type mice (C57BL/6). Kind of data set: Blood glucose in normal mice in vivo. The conditions noted are these: 0.1 mg/kg intraperitoneally, fasted 6 hours after administration.
Data set [2] relates to MPTP-induced Parkinson's disease model mice. Kind of data set: Rotarod motor ability in MPTP-induced Parkinson's disease model. It is filed as in vivo. As to conditions: day 7 after MPTP injection. The method, then:
(§1) Male mice aged 3 months were used and fed normally. The acute MPTP modeling method (see Sonsalla PK, Heikkila RE. The influence of dose and dosing interval on MPTP-induced dopaminergic neurotoxicity in mice. Eur J Pharmacol 1986; 129(3): 339-45.) was employed. MPTP was injected intraperitoneally four times in total at a dose of 20 mg/kg body weight per injection, with a 2-hour interval between each injection. MPTP was dissolved in normal saline, and the control group received an equal dose of normal saline. T2 was dissolved in DMSO and diluted with normal saline to the desired concentration. Accordingly, equal doses of DMSO and normal saline were administered during the treatment. On the day of MPTP model establishment, mice were administered either T2 (treatment group) or DMSO (control group). Subsequently, mice in all groups were administered the corresponding drugs daily. Mouse behavior was tested using a rotarod (E103, UGO BASILE). First, mice were pre-trained for two consecutive days at a constant speed of 15 revolutions per minute (15 rpm) until they could stay on the rod for more than 60 seconds. […] The latency to fall from the rotarod was recorded, and the behavior was monitored by a camera. […] Therefore, whether dopaminergic neurons were damaged can be determined by Western blot assay using an anti-TH antibody.
A general note: The rotarod test checks motor coordination on a turning rod.

The test system of data set [3] is Tyrosine hydroxylase (TH). Briefly: Striatal tyrosine hydroxylase Western blot in MPTP-induced Parkinson's disease model. Format: in vivo, mice. The conditions noted are these: 0.1 mg/Kg, striatal tissue. The method, then: as §1
In general terms: A western blot detects proteins with antibodies after separation by electrophoresis.

Data set [4] deals with T1, Pgk1. Briefly: In vitro biochemical Pgk1 enzymatic activity (NADH production, absorbance 339 nm). Details: made in house; host or cells: E. coli BL21(DE3). The conditions noted are these: for optimal concentration for activating Pgk1: purified Pgk1-His 2 µg/mL, 10 minutes at room temperature. The method, then: Human Pgk1 cDNA was cloned into the pEASYTM-E2 vector (TransGen Biotech) containing a His tag. Protein expression was induced in BL21(DE3) chemocompetent cells (TransGen Biotech) with 0.5 mM IPTG. After lysing cells in extraction buffer (20 mM sodium phosphate, 500 mM NaCl, 5 mM imidazole, 5% glycerol, protease inhibitor cocktail, pH 7.9), the supernatant was purified with nickel beads (AdarBiotech). The His-tagged Pgk1 was eluted with the elution buffer (20 mM sodium phosphate, 500 mM NaCl, 80 mM imidazole, protease inhibitor cocktail, pH 7.9). The activity of Pgk1 can be measured by monitoring the rate of NADH production, as NADH accumulated as the reaction proceeded. Purified Pgkl-His protein (2 µg/mL) was added to the reaction buffer (20 mM Tris, 100 mM NaCl, 2 mM DTT, 0.1 mM MgSO4, 10 mM NaHPO4, pH 8.6), and the substrates (1.6 mM GAP, 1 mM β-NAD, 1 mM ADP, 20 ng/µL GAPDH) was added. […] After reaction for 10 minutes at room temperature, the absorbance wavelength at 339 nm was measured using a microplate reader (Molecular Devices, SpectraMax i3x), and this wavelength corresponds to NADH levels.

For data set [5], the target named is T1, Pgk1. As to conditions: cited from earlier work.
Another data set has as its system α1 adrenergic receptor. The conditions noted are these: cited from earlier work.
The test system of data set [6] is db/db mice. Kind of data set: Hypoglycemic effect in diabetic model mice, intraperitoneal injection. Format: in vivo. As to conditions: 4 hours later. The method, then:
Gene knockout db/db mice are a classic model of hyperglycemia and obesity. Under normal feeding conditions, mice aged 3 months or older developed hyperglycemia and obesity. After the mice were provided with only drinking water (fasted) for 6 hours, blood was collected from the tail of the mice to measure blood glucose values. Subsequently, different drugs, including saline (control), liraglutide at 0.6 mg/Kg, low-concentration T6 (T6 low, 0.1 mg/Kg), and high-concentration T6 (T6 high, 0.5 mg/Kg), were injected intraperitoneally. 4 hours later, blood was collected from the tail of the mice to measure the blood glucose levels. Each group consisted of 6 mice. Blood glucose levels before administration (Vbefore) and after administration (Vafter) were obtained for each mouse. The effect of the drug on blood glucose (%) was calculated as follows: (Vbefore−Vafter) × 100/Vbefore . [formula]

Data set [7] relates to stable Pgk1-knockdown SK-N-SH cell line. Kind of data set: Mitochondrial respiration (Seahorse) in Pgk1-knockdown cells. It is filed as cell-based, human. The conditions noted are these: 10 µM, shPgk1 knockdown cells.
Experimental: Cellular mitochondrial stress was detected using a Seahorse XFe analyzer (XFe-24, Seahorse Bioscience, Billerica, MA, UAS) to measure the oxygen consumption rate (OCR). SH-SKN cell lines were seeded in a 24-well plate compatible with the Seahorse XFe analyzer. After 24 hours, cells were treated with DMSO (0.01%) or various drugs (10 µM). Cellular mitochondrial stress was detected 12 hours after drug treatment. For the mitochondrial stress test, 97.2 mL of Seahorse basal medium (Seahorse Bioscience, Billerica, MA, UAS) was taken and heated in a water bath to 37°C, and 1 mL of a stock solution was added. The stock solution was prepared by mixing the following solutions: 1 mL of 200 mM L-glutamine solution (Sigma), 1 mL of 100 mM pyruvate solution (Sigma), and 800 µL of 2.5 M glucose solution, and the pH of the stock solution was adjusted to 7.4 with 1 M NaOH solution. Before detection, the probe plate was taken out, and 1 mL of XF Carlibrant solution (Seahorse Bioscience) was added to the probe plate. The plate was then incubated overnight in a CO2-free constant temperature incubator at 37°C. After drug treatment, the cells were removed and washed twice with preheated Seahorse basal medium at 37°C, ensuring that 500 µL of Seahorse basal medium remained in each well. The cells were incubated in a CO2-free constant temperature incubator at 37°C for 1 hour. […]
Data set [8] has as its system db/db mice. Briefly: Long-term hypoglycemic and weight-loss effects in diabetic model mice, drinking water. It is filed as in vivo. The conditions noted are these: 7 days, T6 1.5 mg/kg. The method, then:
After 7 days of treatment, changes in glycated hemoglobin (HbA1c) level, insulin level in mouse blood, and body weight, were measured.

[9] abbreviates: Pgk1 immobilized on Biacore T200 chip, read-out: Affinity.

Where two headings read alike, the source gives them in different places.

Experimental for Wild-type mice (C57BL/6): Wild-type mice (C57BL/6) aged 3 months to 4 months under normal feeding conditions were intraperitoneally injected with different drugs at 0.1 mg/kg. Mice injected with normal saline served as the control group. Mice were fasted for 6 hours after administration. Blood was collected from the tail of each mouse to measure blood glucose levels. Each group consisted of 9 mice.

For `CC1Oc2cc3cc(N4CCN(C(=O)[C@H]5CCCO5)CC4)nc(N)c3cc2O1` (some centres unmarked) [Compound T3], the Kd on Pgk1 [1] (setting [9]) amounted to 684 µM. The Rmax at Pgk1 [1] came to 93 RU.
In the case of `Nc1nc(N2CCN(C(=O)c3ccco3)CC2)cc2cc3c(cc12)OCO3` [Compound T11], in the data set on SK-N-SH cells, the “activity in increasing cellular ATP” value was “no such activity of increasing cellular ATP”. The Kd at Pgk1 [1] (setting [9]) is above 1000 µM. Further, the Rmax result on Pgk1 [1] is “None”.
Consider `COc1cc2nc(N3CCN(C(=O)C4CCCO4)CC3)nc(N)c2cc1OC` (centres unmarked) [Terazosin, terazosin, reference compound], for which, in the data set on SK-N-SH cells, the cell growth entry is on record as “tendency to inhibit cell growth” and the “optimal dose (cellular ATP levels)” value is recorded as 10 µM. In the data set on Wild-type mice (C57BL/6), the “hypoglycemic effect (blood glucose)” value was “did not exhibit a hypoglycemic effect”. For the same molecule, the “motor ability (rotarod)” value in data set [2] (0.1 mg/Kg daily) is “improved the motor ability”. In addition, in data set [3], the “tyrosine hydroxylase protein levels / effect on dopaminergic neurons” value is “protective effect on dopaminergic neurons”. Also, the “inhibition of Pgk1 enzymatic activity” value against Pgk1 [4] (high concentration, 100 µM) is on record as “can inhibit Pgk1 enzymatic activity”. The “optimal concentration for activating Pgk1” value on Pgk1 [4] was 1 µM.
In the case of `CC1(C)Oc2cc3cc(N4CCN(C(=O)[C@H]5CCCO5)CC4)nc(N)c3cc2O1` [Compound T4], the Kd at Pgk1 [1] (setting [9]) is 725 µM. For the same molecule, the Rmax on Pgk1 [1] is given as 75 RU.
As to `Nc1nc(N2CCN(C(=O)[C@H]3CCCO3)CC2)cc2cc3c(cc12)OCCO3` [Compound T10], the “activity in increasing cellular ATP” value in the data set on SK-N-SH cells is recorded as “no such activity of increasing cellular ATP”. Also, the Kd on Pgk1 [1] (setting [9]) was above 1000 µM. Also, on Pgk1 [1], the Rmax result is listed as “None”.
As for `Nc1nc(N2CCN(C(=O)[C@@H]3CCCO3)CC2)cc2cc3c(cc12)OCO3` [Compound T2], the Kd on Pgk1 [1] (setting [9]) worked out at 449 µM. The “motor ability (rotarod)” value in [2] (three doses 0.1 mg/Kg, 0.3 mg/Kg and 1 mg/Kg daily) is “exerted protective effects”. Moreover, the “tyrosine hydroxylase protein levels / effect on dopaminergic neurons” value in [3] is reported as “protective effect on dopaminergic neurons”.
In the case of `Nc1nc(N2CCN(C(=O)[C@H]3CCCO3)CC2)cc2cc3c(cc12)OCO3` [Compound T1], the Kd on Pgk1 [1] (setting [9]) was 496 µM.
With `Nc1nc(N2CCN(C(=O)[C@H]3CCCO3)CC2)cc2cc3c(cc12)CCO3` [Compound T5], the Kd on Pgk1 [1] (setting [9]) came to 273 µM. This molecule also returned an Rmax at Pgk1 [1] of 86 RU.
`COc1cc2cc(N3CCN(C(=O)C4CCCO4)CC3)nc(N)c2cc1OC` (centres unmarked) [TZ-md]: the “effect of activating Pgk1” value on Pgk1 [5] is reported as “still retains the effect of activating Pgk1”. In addition, the “inhibition of the α1 adrenergic receptor” value with α1 adrenergic receptor is “does not inhibit the α1 adrenergic receptor”.
Consider `Nc1nc(N2CCN(C(=O)C3CCCC3)CC2)cc2cc3c(cc12)OCO3` [Compound T7], for which the Kd on Pgk1 [1] (setting [9]) was found to be 878 µM.
In turn, `Nc1ncnc2c1ncn2[C@@H]1O[C@H](COP(=O)(O)OP(=O)(O)O)[C@@H](O)[C@H]1O` [ADP, reference compound] showed an Rmax at Pgk1 [1] of 35 RU. For the same molecule, the Kd at Pgk1 [1] (unit inferred, read-out: KD value) was found to be 337 µM.
On to `Nc1nc(N2CCN(C(=O)[C@H]3CCCN3)CC2)cc2cc3c(cc12)OCO3` [Compound T8], for which, at Pgk1 [1] (setting [9]), the Kd worked out at 473 µM. This molecule returned an Rmax at Pgk1 [1] of 87 RU.
Take liraglutide: in the data set with db/db mice [6] (0.6 mg/Kg intraperitoneally), the “hypoglycemic effect (blood glucose)” value is recorded as “optimal hypoglycemic effect”.
With `Nc1nc(N2CCN(C(=O)[C@H]3CCCO3)CC2)cc2cc3c(cc12)OCC3` [Compound T6], in the data set with SK-N-SH cells, the cell growth result was “tendency to inhibit cell growth” and the “optimal dose (cellular ATP levels)” value is 50 µM. Further, the Kd at Pgk1 [1] (setting [9]) was 375 µM. In data set [7], the basal respiratory rate result is “absent” and the maximum respiratory rate result was “absent”. The “hypoglycemic effect (blood glucose)” value in the data set with db/db mice [6] (high concentration 0.5 mg/kg intraperitoneally) is “significant hypoglycemic effects”. Also, in the data set on db/db mice [6] (low concentration 0.1 mg/kg intraperitoneally), the “hypoglycemic effect (blood glucose)” value is listed as “significant hypoglycemic effects”. Besides, the body weight result with db/db mice [8] is “significant decrease in body weight”. In addition, the “glycated hemoglobin (HbA1c) level” value in the data set with db/db mice [8] (terazosin 0.3 mg/kg, metformin 350 mg/kg, versus control group) is listed as “decrease”. For the same molecule, on Pgk1 [4] (all different concentrations tested), the “inhibition of Pgk1 enzymatic activity” value is listed as “none of the concentrations can inhibit Pgk1”. In addition, at Pgk1 [4], the “optimal concentration for activating Pgk1” value is listed as 0.1 µM.
With `Nc1nc(N2CCN(C(=O)[C@@H]3CCCN3)CC2)cc2cc3c(cc12)OCO3` [Compound T9], on Pgk1 [1] (setting [9]), the Kd came to 811 µM. In addition, on Pgk1 [1], the Rmax is given as 87 RU.

The values above are taken from patent EP4810497A1, “ISOQUINOLINE DERIVATIVE, SYNTHESIS METHOD THEREFOR, AND USE THEREOF” (Harbin Gloria Pharmaceuticals Co., Ltd., priority 2023, dated 2025).
